Test results taken from patent US10071985B2, “Therapeutic compounds” (Gilead Sciences, Inc., priority 2016, dated 2018).
Read-outs that look alike come from different tables or passages of the source. One block for each compound: values may come before it.

Assays:
HIV-IIIb = experiment: Test A: Antiviral Assay in MT4 Cells; format: cell-based, HIV-1
Description: 1 mL Aliquots of MT4 cells were pre-infected for 3 hours at 37° C. with 25 μL of cell growth medium (mock-infected) or a fresh 1:250 dilution of an HIV-IIIb concentrated ABI stock (0.004 m.o.i.). Infected and uninfected cells were diluted in cell growth media and 35 μL (2000 cells) was added to each well of the assay plates.
Assay plates were then maintained in a humidified, 5% CO2 incubator at 37° C. After 5 days of incubation, 25 μl of 2× concentrated CellTiter-Glo™ Reagent (catalog #G7573, Promega Biosciences, Inc., Madison, Wis.) was added to each well of the assay plate. Cell lysis was carried out by incubating at room temperature for 10 minutes and then chemiluminescence was read using an Envision plate reader (PerkinElmer).

[1] = Test C: Pharmacokinetic analysis following intravenous administration to Sprague-Dawley rats; format: in vivo; details: for clearance: read-out: Rat CL (converted); for AUC(0-inf): t = 0 to infinity, read-out: Rat AUCinf; for Cmax: maximum plasma concentration
Excerpt: (§1) Test C. Pharmacokinetic Analysis Following Intravenous Administration to Sprague-Dawley Rats and Beagle Dogs and Cynomologous Monkeys
All IV formulations were in solution.
(§2) Each rat IV dosing group consisted of 3 male SD rats. […] The animals were fasted overnight prior to dose administration and up to 4 hr after dosing. Each dog IV dosing group consisted of 3 male, naïve beagle dogs. At dosing, the animals weighed ˜10-12 kg. The animals were fasted overnight prior to dose administration and up to 2 hr after dosing.
(§3) For the IV infusion group, the test compound was administered by intravenous infusion over 30 minutes. The rate of infusion was adjusted according to the body weight of each animal to deliver a dose of 1 mg/kg at 2 mL/kg.
(§4) Serial venous blood samples (approximately 0.4 mL each for rat and 1.0 mL for dog) were taken at specified time points after dosing from each animal. The blood samples were collected into Vacutainer™ tubes (Becton-Dickinson Corp, New Jersey, USA) containing EDTA as the anti-coagulant and were immediately placed on wet ice pending centrifugation for plasma. Centrifugation began within 1 hour of collection. All samples were placed into 96-well tubes and maintained on dry ice prior to storage at approximately −70° C.
(§5) An LC/MS/MS method was used to measure the concentration of test compounds in plasma.
(§6) Non-compartmental pharmacokinetic analysis was performed on the plasma concentration-time data.

[2] = Test C: Pharmacokinetic analysis following intravenous administration to beagle dogs; format: in vivo
Excerpt: as §1
All IV formulations were in solution.
as §2, §3, §4, §5, §6

[3] = Test C: Pharmacokinetic analysis following intravenous administration to cynomolgus monkeys; format: in vivo, cynomolgus (cyno) monkey; details: male, cynomolgus monkey, 1 mg/kg; for AUC(0-inf): t = 0 to infinity, read-out: Cyno AUCinf; for Cmax: maximum plasma concentration, read-out: Cyno Cmax
Description: as §1
All IV formulations were in solution.
Each cynomolgus (cyno) monkey IV dosing group consisted of 3 male, naïve cyno monkeys At dosing, the animals weighed ˜3.2-4 kg. The animals were fasted overnight prior to dose administration and up to 2 hr after dosing.
as §3, §4, §5, §6

[4] = Test B: Cytotoxicity Assay; details: human
Description: Compound cytotoxicity and the corresponding CC50 values was determined using the same protocol as described in the antiviral assay (Test A) except that uninfected cells were used.

Human Liver Hepatocytes = experiment: Test D: Metabolic Stability in Cultured Human Liver Hepatocytes; format: in vitro ADME; details: pooled cryopreserved hepatocytes, […] radiolabelled compound, 0-6 hours; calculated from stability data
Description: Test D. Metabolic Stability in Cultured Human Liver Hepatocytes
The final hepatocyte concentration was 1 million cells/mL. The hepatocyte/compound reaction mixture was dissolved in InVitroGRO™ KHB buffer (catalog #Z99074, BioreclamationIVT, Inc., Baltimore, Md.) at pH 7.4. The incubations were performed in duplicate. A cell free control and a positive control were included in the incubations. The incubations were carried out with gentle shaking in a 37° C. incubator under a humid atmosphere of 95% air/5% CO2 (v/v). Aliquots (100 mL) were removed after 0, 1, 3, and 6 hours and added to 200 mL quenching solution that comprised 0.1% (v/v) TFA in 5% water/95% acetonitrile (v/v). The samples were placed on a shaker for 10 min, followed by centrifugation at 3000 g for 30 min. The samples of the supernatant were analyzed on a Dionex HPLC/PerkinElmer Flow Scintillation Analyzer as described below.
The column was a Phenomenex Synergi fusion RP (150×4.6 mm, 4 mm) maintained at 32 degrees Celsius. Mobile Phase A consisted of 0.1% (v/v) TFA in 99% water/1% acetonitrile (v/v). Mobile Phase B consisted of 0.1% (v/v) TFA in 5% water/95% acetonitrile (v/v). […]
Metabolic stability was determined by measuring the change in relative abundance of metabolites and parent over time and calculating from it the rate of disappearance of the parent compound. […]

[5] = Human immunodeficiency virus 1, IIIB, MT4, 120 h
[6] = male, Sprague-Dawley, rat, plasma, iv, 1 mg/kg
[7] = male, Sprague-Dawley, rat, plasma, IV infusion over 30 minutes, 1 mg/kg
[8] = male, Sprague-Dawley, rat, IV infusion over 30 minutes, 1 mg/kg
[9] = plasma, IV infusion over 30 minutes

Structure (SMILES): CC(C)(C#Cc1ccc(-c2ccc(Cl)c3c(NS(=O)(=O)C4CC4)nn(CC(F)F)c23)c([C@H](Cc2cc(F)cc(F)c2)NC(=O)Cn2nc(C(F)F)c3c2C(F)(F)[C@@H]2C[C@H]32)n1)S(C)(=O)=O [Compound 38, N—((S)-1-(3-(4-chloro-3-(cyclopropanesulfonamido)-1-(2,2-difluoroethyl)-1H-indazol-7-yl)-6-(3-methyl-3-(methylsulfonyl)but-1-yn-1-yl)pyridin-2-yl)-2-(3,5-difluorophenyl)ethyl)-2-((3bS,4aR)-3-(difluoromethyl)-5,5-difluoro-3b,4,4a,5-tetrahydro-1H-cyclopropa[3,4]cyclopenta[1,2-c]pyrazol-1-yl)acetamide]
EC50 (HIV-IIIb; [5]): 0.399 nM | times more potent in HIV antiviral assay relative to compound A (HIV-IIIb; relative to compound A): about 4 times | times more potent in HIV antiviral assay relative to compound B (HIV-IIIb; relative to compound B): about 8 times | clearance [1, 6]: 1.33 mL/min/kg | half-life ([1]; male, Sprague-Dawley, rat, plasma, iv, 1 mg/kg, read-out: Rat t1/2 (converted)): 19 h | AUC(0-inf) [1, 7]: 13 µM·h | Vd ([1]; male, Sprague-Dawley, rat, plasma, IV infusion over 30 minutes, 1 mg/kg, volume of distribution at steady state, read-out: Rat Vss): 1.8 L/kg | Cmax [1, 8]: 2400 nM | times longer in vivo terminal half-life in rat relative to compound A ([1]; relative to compound A): about 9.5 times | times lower in vivo clearance in rat relative to compound A ([1]; relative to compound A): about 6.3 times | times longer in vivo terminal half-life in rat relative to compound B ([1]; relative to compound B): about 6.3 times | times lower in vivo clearance in rat relative to compound B ([1]; relative to compound B): about 5.4 times | in vivo clearance and terminal half-life in dog compared to compounds A and B ([2]; compared to compounds A and B): similar | clearance ([2]; male, beagle, dog, plasma, iv, 1 mg/kg, read-out: Dog CL (converted)): 5.5 mL/min/kg | half-life ([2]; male, beagle, dog, plasma, iv, 1 mg/kg, read-out: Dog t1/2 (converted)): 7 h | AUC(0-inf) ([2]; male, beagle, dog, plasma, IV infusion over 30 minutes, 1 mg/kg, t = 0 to infinity, read-out: Dog AUCinf): 3.3 µM·h | Vd ([2]; male, beagle, dog, plasma, IV infusion over 30 minutes, 1 mg/kg, volume of distribution at steady state, read-out: Dog Vss): 1.77 L/kg | Cmax ([2]; male, beagle, dog, IV infusion over 30 minutes, 1 mg/kg, maximum plasma concentration): 1600 nM | clearance ([3]; plasma, iv, read-out: Cyno CL (converted)): 3.5 mL/min/kg | half-life ([3]; plasma, iv, read-out: Cyno t1/2 (converted)): 9.5 h | AUC(0-inf) [3, 9]: 4.9 µM·h | Vd ([3]; plasma, IV infusion over 30 minutes, volume of distribution at steady state, read-out: Cyno Vss): 2.1 L/kg | Cmax ([3]; IV infusion over 30 minutes): 1300 nM | CC50 at 5 days [4]: 55200 nM

EC50 (HIV-IIIb; Human immunodeficiency virus 1, 120 h, MT4 cells infected with HIV-IIIb, 5 days incubation, CellTiter-Glo, read-out: EC50): 0.185 nM | clearance [1, 6]: 0.833 mL/min/kg | AUC(0-inf) [1, 7]: 19 µM·h | Cmax [1, 8]: 1800 nM | AUC(0-inf) [3, 9]: 4.5 µM·h | Cmax ([3]; IV infusion over 30 minutes): 1300 nM | Predicted Human Hepatic Clearance (Human Liver Hepatocytes): 0.17 mL/min/kg
Structure (SMILES): CC(C)(C#Cc1ccc(-c2ccc(Cl)c3c(NS(C)(=O)=O)nn(CC(F)(F)F)c23)c([C@H](Cc2cc(F)cc(F)c2)NC(=O)Cn2nc(C(F)(F)F)c3c2C(F)(F)[C@@H]2C[C@H]32)n1)S(C)(=O)=O [Compound 24, N—((S)-1-(3-(4-chloro-3-(methylsulfonamido)-1-(2,2,2-trifluoroethyl)-1H-indazol-7-yl)-6-(3-methyl-3-(methylsulfonyl)but-1-yn-1-yl)pyridin-2-yl)-2-(3,5-difluorophenyl)ethyl)-2-((3bS,4aR)-5,5-difluoro-3-(trifluoromethyl)-3b,4,4a,5-tetrahydro-1H-cyclopropa[3,4]cyclopenta[1,2-c]pyrazol-1-yl)acetamide]
CC50 at 5 days ([4]; uninfected MT4 cells): 30100 nM

EC50 (HIV-IIIb; [5]): 2.99 nM
Structure (SMILES): Cn1nc(NS(C)(=O)=O)c2c(Cl)ccc(-c3ccc(C#CC(C)(C)O)nc3[C@H](Cc3cc(F)cc(F)c3)NC(=O)Cn3nc(C(F)(F)F)c4c3C(F)(F)[C@@H]3C[C@H]43)c21 [Compound B, reference compound]
